In patent US9278981B2, “Compounds and compositions for inhibiting the activity of ABL1, ABL2 and BCR-ABL1” (Novartis AG, priority 2012, dated 2016):
pIC50: −log10 of the molar value.

Columns and labels:
ABL1 (64-515) [1] = target: T1, ABL1 (64-515) (Homo sapiens (Human), UniProt P00519); assay: Radio ABL1 (64-515) assay (radiometric filter-binding); assay type: biochemical
ABL1 (64-515) [2] = target: T1, ABL1 (64-515); assay: Caliper ABL1 (64-515) assay (microfluidic mobility shift); assay type: biochemical
Experimental: Expression and purification of human ABL was performed using standard expression purification procedures. […] The His-ABL was expressed in E. coli BL21 (DE3) and the ABL proteins were isolated by Ni-affinity on a Ni-NTA column (Qiagen). The His-tag was removed by PreScission protease (GE Healthcare) and the non-phosphoprylated ABL further purified on a Mono Q HR 10/10 (GE Healthcare, mono-phosphorylated ABL is about 10-20% of total ABL protein) and HiLoad 16/60 Superdex 200 size exclusion column (GE Healthcare).
All assays were performed in 384-well microtiter plates. Each assay plate contained 8-point serial dilutions for 40 test compounds, as well as four 8-point serial dilutions of staurosporine as a reference compound, plus 16 high and 16 low controls. Liquid handling and incubation steps were done on a Thermo CatX workstation equipped with Innovadyne Nanodrop Express. Between pipetting steps, tips were cleaned in wash cycles using wash buffer.
The assay plates were prepared by addition of 50 nL per well of compound solution in 90% DMSO. […] Plates with terminated kinase reactions were transferred to the Caliper LC3000 workstations for reading. Phosphorylated and unphosphorylated peptides were separated using the Caliper microfluidic mobility shift technology. Briefly, samples from terminated kinase reactions were applied to the chip. Analytes are transported through the chip by constant buffer flow and the migration of the substrate peptide is monitored by the fluorescence signal of its label. Phosphorylated peptide (product) and unphosphorylated peptide (substrate) are separated in an electric field by their charge/mass ratio. Kinase activities were calculated from the amounts of formed phospho-peptide. IC50 values were determined from percent inhibition values at different compound concentrations by non-linear regression analysis.
Test compounds were dissolved in DMSO (10 mM) and transferred into 1.4 mL flat bottom or V-shaped Matrix tubes carrying a unique 2D matrix. The stock solutions were stored at +2° C. if not used immediately. For the test procedure the vials were defrosted and identified by a scanner whereby a working sheet was generated that guided the subsequent working steps.
Compound dilutions were made in 96-well plates. This format enabled the assay of maximally 40 individual test compounds at 8 concentrations (single points) including 4 reference compounds. The dilution protocol included the production of “pre-dilution plates”, “master plates” and “assay plates”.
Polypropylene 96-well plates were used as pre-dilution plates. […] All dilution steps were done on a HamiltonSTAR robot.
These plates were used directly for the assay which was performed in a total volume of 9.05 μL.

T1 sequence (P00519 64-515): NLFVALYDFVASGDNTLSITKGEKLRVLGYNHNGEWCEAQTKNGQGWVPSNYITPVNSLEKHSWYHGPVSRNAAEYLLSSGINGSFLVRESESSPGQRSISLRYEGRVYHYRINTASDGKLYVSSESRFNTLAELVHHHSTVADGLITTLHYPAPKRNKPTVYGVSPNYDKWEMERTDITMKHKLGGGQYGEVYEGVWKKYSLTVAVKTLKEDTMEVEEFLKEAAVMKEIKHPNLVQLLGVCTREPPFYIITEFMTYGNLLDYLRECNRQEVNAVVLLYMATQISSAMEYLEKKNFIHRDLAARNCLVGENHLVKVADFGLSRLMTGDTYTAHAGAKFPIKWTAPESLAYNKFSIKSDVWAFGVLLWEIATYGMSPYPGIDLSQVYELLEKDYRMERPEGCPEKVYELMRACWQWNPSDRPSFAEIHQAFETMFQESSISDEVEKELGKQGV

| Structure (SMILES) | pIC50 (ABL1 (64-515) [1]) | pIC50 (ABL1 (64-515) [2]) |
| --- | --- | --- |
| N#Cc1cncc(-c2cc(C(=O)Nc3ccc(OC(F)(F)F)cc3)cnc2N2CC[C@@H](O)C2)c1 [Example 54, (R)-5′-Cyano-2-(3-hydroxypyrrolidin-1-yl)-N-(4-(trifluoromethoxy)phenyl)-[3,3′-bipyridine]-5-carboxamide] | 8.30 | 9.05 |
| O=C(Nc1ccc(OC(F)(F)F)cc1)c1cnc(N2CCOCC2)c(-c2ccc(CO)nc2)c1 [Example 149, 6′-(Hydroxymethyl)-2-morpholino-N-(4-(trifluoromethoxy)phenyl)-[3,3′-bipyridine]-5-carboxamide] | 8.52 | 8.59 |
| NC1CN(c2ncc(C(=O)Nc3ccc(OC(F)(F)Cl)cc3)cc2-c2cncnc2)C1 [Example 259] | 8.29 | > 9.89 |
| O=C(Nc1ccc(OC(F)(F)Cl)cc1)c1cnc(N2C[C@@H](O)[C@@H](O)C2)c(-c2cncc(F)c2)c1 [Example 264] | 9.00 | 9.22 |
| CCN(CCO)c1ncc(C(=O)Nc2ccc(OC(F)(F)Cl)cc2)cc1-c1cncnc1 [Example 182, N-(4-(Chlorodifluoromethoxy)phenyl)-6-(ethyl(2-hydroxyethyl)amino)-5-(pyrimidin-5-yl)nicotinamide] | 8.40 | 9.22 |
| Cc1ccc(-c2cc(C(=O)Nc3ccc(OC(F)(F)F)cc3)cnc2N2CC[C@H](CO)C2)cn1 [Example 82, (S)-2-(3-(Hydroxymethyl)pyrrolidin-1-yl)-6′-methyl-N-(4-(trifluoromethoxy)phenyl)-[3,3′-bipyridine]-5-carboxamide] | > 8.52 | 9.22 |
| O=C(Nc1ccc(OC(F)(F)F)cc1)c1cnc(N2C[C@H](CO)[C@@H](O)C2)c(-c2cncc(F)c2)c1 (relative stereo) [Example 92, 5′-Fluoro-2-(trans-3-hydroxy-4-(hydroxymethyl)pyrrolidin-1-yl)-N-(4-(trifluoromethoxy)phenyl)-[3,3′-bipyridine]-5-carboxamide] | 8.22 | 9.15 |
| N#Cc1cncc(-c2cc(C(=O)Nc3ccc(SC(F)(F)F)c(F)c3)cnc2N2CC[C@@H](O)C2)c1 [Example 207, (R)-5′-Cyano-N-(3-fluoro-4-((trifluoromethyl)thio)phenyl)-2-(3-hydroxypyrrolidin-1-yl)-[3,3′-bipyridine]-5-carboxamide] | 8.52 | 8.96 |
| O=C(Nc1ccc(OC(F)(F)Cl)cc1)c1ccc(N2C[C@H](O)[C@@H](O)C2)c(-c2cncnc2)c1 [Example 244, N-(4-(Chlorodifluoromethoxy)phenyl)-4-((3S,4S)-3,4-dihydroxypyrrolidin-1-yl)-3-(pyrimidin-5-yl)benzamide] | 9.00 | 9.22 |
| CC(F)(F)Oc1ccc(NC(=O)c2cnc(N3CC[C@@H](O)C3)c(-c3cncc(C#N)c3)c2)cc1 [Example 276] | 8.52 | 8.17 |
| CN(CCO)c1ncc(C(=O)Nc2ccc(OC(F)(F)F)cc2)cc1-c1cncc(F)c1 [Example 154, 5′-Fluoro-2-((2-hydroxyethyl)(methyl)amino)-N-(4-(trifluoromethoxy)phenyl)-[3,3′-bipyridine]-5-carboxamide] | > 8.52 | 9.00 |
| N#Cc1cncc(-c2cc(C(=O)Nc3ccc(OC(F)(F)Cl)cc3)cnc2N2C[C@H](O)[C@@H](O)C2)c1 [Example 269] | > 10.00 | > 9.89 |
| Cc1ccc(-c2cc(C(=O)Nc3ccc(OC(F)(F)F)cc3)cnc2N2CC(C)(O)C2)cn1 [Example 131, 2-(3-Hydroxy-3-methylazetidin-1-yl)-6′-methyl-N-(4-(trifluoromethoxy)phenyl)-[3,3′-bipyridine]-5-carboxamide] | 8.08 | 8.89 |
| O=C(Nc1ccc(SC(F)F)cc1)c1cnc(N2CC[C@@H](O)C2)c(-c2cncnc2)c1 [Example 211, (R)—N-(4-((Difluoromethyl)thio)phenyl)-6-(3-hydroxypyrrolidin-1-yl)-5-(pyrimidin-5-yl)nicotinamide] | 7.96 | 8.48 |
| CC(=O)NC[C@H]1CCN(c2ncc(C(=O)Nc3ccc(OC(F)(F)Cl)cc3)cc2-c2cncnc2)C1 [Example 178, (R)-6-(3-(Acetamidomethyl)pyrrolidin-1-yl)-N-(4-(chlorodifluoromethoxy)phenyl)-5-(pyrimidin-5-yl)nicotinamide] | 7.89 | 9.40 |
| Cc1ccc(-c2cc(C(=O)Nc3ccc(OC(F)(F)F)cc3)cnc2N2CC[C@@H](O)C2)cn1 [Example 41, (R)-2-(3-Hydroxypyrrolidin-1-yl)-6′-methyl-N-(4-(trifluoromethoxy)phenyl)-[3,3′-bipyridine]-5-carboxamide] | > 8.52 | 9.10 |
| N#Cc1cncc(-c2cc(C(=O)Nc3ccc(SC(F)(F)F)cc3)cnc2N2CC[C@@H](O)C2)c1 [Example 188, (R)-5′-Cyano-2-(3-hydroxypyrrolidin-1-yl)-N-(4-((trifluoromethyl)thio)phenyl)-[3,3′-bipyridine]-5-carboxamide] | 8.40 | 9.70 |

| Structure (SMILES) | pIC50 (ABL1 (64-515) [1]) | pIC50 (ABL1 (64-515) [2]) |
| --- | --- | --- |
| O=C(Nc1ccc(OC(F)(F)F)cc1)c1cnc(N2CCC3(COC3)C2)c(-c2cncnc2)c1 [Example 116, 5-(Pyrimidin-5-yl)-6-(2-oxa-6-azaspiro[3.4]octan-6-yl)-N-(4-(trifluoromethoxy)phenyl)nicotinamide] | > 8.52 | 8.46 |
| O=C(Nc1ccc(OC(F)(F)F)cc1)c1ccc(N2CC[C@@H](O)C2)c(-c2cccnc2)c1 [Example 5, (R)-4-(3-Hydroxypyrrolidin-1-yl)-3-(pyridin-3-yl)-N-(4-(trifluoromethoxy)phenyl)benzamide] | > 8.52 | 8.57 |
| CN(C)[C@H]1CN(c2ncc(C(=O)Nc3ccc(OC(F)(F)Cl)cc3)cc2-c2cncnc2)C[C@@H]1O [Example 251] | > 10.00 | 9.15 |
| O=C(Nc1ccc(OC(F)(F)C(F)(F)F)cc1)c1cnc(N2CC[C@@H](O)C2)c(-c2cncc(F)c2)c1 [Example 221, (R)-5′-Fluoro-2-(3-hydroxypyrrolidin-1-yl)-N-(4-(perfluoroethoxy)phenyl)-[3,3′-bipyridine]-5-carboxamide] | 8.00 | 8.89 |
| CN(C)C1CN(c2ncc(C(=O)Nc3ccc(OC(F)(F)F)cc3)cc2-c2cncc(F)c2)C1 [Example 239, 2-(3-(Dimethylamino)azetidin-1-yl)-5′-fluoro-N-(4-(trifluoromethoxy)phenyl)-[3,3′-bipyridine]-5-carboxamide] | 8.40 | 8.59 |
| N[C@H]1CN(c2ccc(C(=O)Nc3ccc(OC(F)(F)Cl)cc3)cc2-c2cncnc2)C[C@@H]1O [Example 245, 4-((3S,4S)-3-Amino-4-hydroxypyrrolidin-1-yl)-N-(4-(chlorodifluoromethoxy)phenyl)-3-(pyrimidin-5-yl)benzamide] | 8.30 | 9.00 |
| O=C(Nc1ccc(OC(F)(F)F)cc1)c1cnc(N2CC[C@@H](O)C2)c(-c2cncc(F)c2)c1 [Example 45, (R)-5′-Fluoro-2-(3-hydroxypyrrolidin-1-yl)-N-(4-(trifluoromethoxy)phenyl)-[3,3′-bipyridine]-5-carboxamide] | > 8.52 | 8.96 |
| O=C(Nc1ccc(OC(F)(F)F)cc1)c1cnc(N2CC(CO)C2)c(-c2cccnc2)c1 [Example 137, 2-(3-(Hydroxymethyl)azetidin-1-yl)-N-(4-(trifluoromethoxy)phenyl)-[3,3′-bipyridine]-5-carboxamide] | 8.22 | 9.22 |
| O=C(Nc1ccc(OC(F)(F)F)cc1)c1cnc(N2CC[C@@H](O)C2)c(-c2cnccc2F)c1 [Example 48, (R)-4′-Fluoro-2-(3-hydroxypyrrolidin-1-yl)-N-(4-(trifluoromethoxy)phenyl)-[3,3′-bipyridine]-5-carboxamide] | 8.38 | 9.10 |
| O=C(Nc1ccc(OC(F)(F)Cl)cc1)c1cnc(N2C[C@H](CO)[C@@H](O)C2)c(-c2cncnc2)c1 (relative stereo) [Example 250, N-(4-(Chlorodifluoromethoxy)phenyl)-6-(trans-3-hydroxy-4-(hydroxymethyl)pyrrolidin-1-yl)-5-(pyrimidin-5-yl)nicotinamide] | 9.00 | 8.89 |
| O=C(Nc1ccc(OC(F)(F)F)cc1)c1cnc(N2CC[C@H](CO)C2)c(-c2cnc(Cl)c(F)c2)c1 [Example 89, (S)-6′-Chloro-5′-fluoro-2-(3-(hydroxymethyl)pyrrolidin-1-yl)-N-(4-(trifluoromethoxy)phenyl)-[3,3′-bipyridine]-5-carboxamide] | > 8.52 | 9.52 |
| O=C(Nc1ccc(OC(F)(F)F)cc1)c1ccc(N2CCOC2=O)c(-c2cncnc2)c1 [Example 117, 4-(2-Oxooxazolidin-3-yl)-3-(pyrimidin-5-yl)-N-(4-(trifluoromethoxy)phenyl)benzamide] | 9.40 | 8.26 |
| O=C(Nc1ccc(OC(F)(F)F)cc1)c1cnc(N2CC[C@@H](O)C2)c(-c2ccc(CO)nc2)c1 [Example 42, (R)-6′-(Hydroxymethyl)-2-(3-hydroxypyrrolidin-1-yl)-N-(4-(trifluoromethoxy)phenyl)-[3,3′-bipyridine]-5-carboxamide] | > 8.52 | 9.10 |
| NC12CC1CN(c1ncc(C(=O)Nc3ccc(OC(F)(F)Cl)cc3)cc1-c1cncnc1)C2 (centres unmarked) [Example 252] | 8.08 | 9.30 |
| CC(C)(C)Oc1ccc(NC(=O)c2cnc(N3CC[C@@H](O)C3)c(-c3cncnc3)c2)cc1 [Example 219, (R)—N-(4-(tert-Butoxy)phenyl)-6-(3-hydroxypyrrolidin-1-yl)-5-(pyrimidin-5-yl)nicotinamide] | 7.80 | 7.80 |
| N[C@]1(C(F)(F)F)CCN(c2ncc(C(=O)Nc3ccc(OC(F)(F)Cl)cc3)cc2-c2cncnc2)C1 [Example 289, (R)-6-(3-Amino-3-(trifluoromethyl)pyrrolidin-1-yl)-N-(4-(chlorodifluoromethoxy)phenyl)-5-(pyrimidin-5-yl)nicotinamide] | 8.52 | 9.15 |
| O=C(Nc1ccc(SC(F)(F)F)c(F)c1)c1cnc(N2CC[C@@H](O)C2)c(-c2cncnc2)c1 [Example 205, (R)—N-(3-Fluoro-4-((trifluoromethyl)thio)phenyl)-6-(3-hydroxypyrrolidin-1-yl)-5-(pyrimidin-5-yl)nicotinamide] | > 8.52 | > 9.89 |
